Laboratory results taken from US11388902B2, “Pesticidally active cyclopropyl methyl amide derivatives” (SYNGENTA PARTICIPATIONS AG, priority 2017, dated 2022).

Assays:
Assay type in all cases: in vivo
[1] = test system: Plutella xylostella (Diamond Back Moth); test: Plutella xylostella (diamond back moth) artificial diet test; conditions: 120 h, application rate of 200 ppm, L2 larvae, 5 days after infestation, in comparison to untreated samples, read-out: effect in at least one of the two categories (mortality or growth inhibition)
Procedure: Example B3: Plutella xylostella (Diamond Back Moth)
(§1) 24-well microtiter plates with artificial diet were treated with aqueous test solutions prepared from 10′000 ppm DMSO stock solutions by pipetting. After drying, the plates were infested with L2 larvae (10 to 15 per well). The samples were assessed for mortality and growth inhibition in comparison to untreated samples 5 days after infestation.

[2] = test system: Thrips tabaci (Onion Thrips); test: Thrips tabaci (onion thrips) feeding/contact activity, sunflower leaf discs; conditions: foliar, 144 h, application rate of 200 ppm, thrips population of mixed ages, 6 days after infestation
Procedure: Example B6: Thrips tabaci (Onion Thrips) Feeding/Contact Activity
(§2) Sunflower leaf discs were placed on agar in 24-well microtiter plates and sprayed with aqueous test solutions prepared from 10′000 ppm DMSO stock solutions. After drying the leaf discs were infested with a thrips population of mixed ages. The samples were assessed for mortality 6 days after infestation.

[3] = test system: Diabrotica balteata (Corn Root Worm); test: Diabrotica balteata (corn root worm) on sprayed maize sprouts; conditions: 96 h, application rate of 200 ppm, L2 larvae, 4 days after infestation, in comparison to untreated samples, read-out: effect in at least one of the two categories (mortality or growth inhibition)
Procedure: Example B1: Diabrotica balteata (Corn Root Worm)
as §1, with “Maize sprouts placed onto an agar layer in 24-well” for “24-well”, “plates” for “plates with artificial diet”, “spraying.” for “pipetting.”, “(6” for “(10”, “10” for “15”, “4” for “5”

[4] = test system: Myzus persicae (Green Peach Aphid); test: Myzus persicae (green peach aphid) sucrose solution feeding test; conditions: 120 h, test rate of 12 ppm, 5 days after infestation
Source text: Example B2: Myzus persicae (Green Peach Aphid)
Test compounds prepared from 10′000 ppm DMSO stock solutions were applied by pipette into 24-well microtiter plates and mixed with sucrose solution. The plates were closed with a stretched Parafilm. A plastic stencil with 24 holes was placed onto the plate and infested pea seedlings were placed directly on the Parafilm. The infested plate was closed with a gel blotting paper and another plastic stencil and then turned upside down. The samples were assessed for mortality 5 days after infestation.

[5] = test system: Spodoptera littoralis (Egyptian Cotton Leaf Worm); test: Spodoptera littoralis (Egyptian cotton leaf worm) cotton leaf disc test; conditions: foliar, 72 h, application rate of 200 ppm, L1 larvae, 3 days after infestation, in comparison to untreated samples, read-out: control (mortality, anti-feeding effect, or growth inhibition)
Procedure: Example B4: Spodoptera littoralis (Egyptian Cotton Leaf Worm)
Cotton leaf discs were placed onto agar in 24-well microtiter plates and sprayed with aqueous test solutions prepared from 10′000 ppm DMSO stock solutions. After drying the leaf discs were infested with five L1 larvae. The samples were assessed for mortality, anti-feeding effect, and growth inhibition in comparison to untreated samples 3 days after infestation. Control of Spodoptera littoralis by a test sample is given when at least one of the categories mortality, anti-feedant effect, and growth inhibition is higher than the untreated sample.

[6] = test system: Tetranychus urticae (Two-Spotted Spider Mite); test: Tetranychus urticae (two-spotted spider mite) feeding/contact activity, bean leaf discs; conditions: foliar, 192 h, application rate of 200 ppm, 8 days after infestation, read-out: mortality on mixed population (mobile stages)
Procedure: Example B5: Tetranychus urticae (Two-Spotted Spider Mite):Feeding/Contact Activity
as §2, with “Bean” for “Sunflower”, “discs” for “discs were placed”, “were” for “and”, “mite” for “thrips”, “on mixed population (mobile stages) 8” for “6”

N#CC1(CNC(=O)c2ccc(C3=NOC(c4cc(Cl)cc(Cl)c4)(C(F)(F)F)C3)cn2)CC1 (racemic) [Compound D01, N-[(1-cyanocyclopropyl)methyl]-5-[5-(3,5-dichlorophenyl)-5-(trifluoromethyl)-4H-isoxazol-3-yl]pyridine-2-carboxamide]
≥ 80%: percent effect (mortality or growth inhibition) at 200 ppm [1] | mortality at 200 ppm [2] | percent effect (mortality or growth inhibition) at 200 ppm [3]

Cc1cc(C2=NOC(c3cc(Cl)cc(Cl)c3)(C(F)(F)F)C2)ncc1C(=O)NCC1(C#N)CC1 (racemic) [Compound D02, N-[(1-cyanocyclopropyl)methyl]-6-[5-(3,5-dichlorophenyl)-5-(trifluoromethyl)-4H-isoxazol-3-yl]-4-methyl-pyridine-3-carboxamide]
≥ 80%: percent effect (mortality or growth inhibition) at 200 ppm [1] | mortality at 200 ppm [2] | mortality at 12 ppm [4] | percent control (mortality, anti-feedant effect or growth inhibition) at 200 ppm [5] | percent effect (mortality or growth inhibition) at 200 ppm [3] | mortality at 200 ppm [6]

Cc1cc(C2=NO[C@@](c3cc(Cl)c(F)c(Cl)c3)(C(F)(F)F)C2)ccc1C(=O)NCC1(C#N)CC1 [Compound A01, N-[(1-cyanocyclopropyl)methyl]-4-[(5S)-5-(3,5-dichloro-4-fluoro-phenyl)-5-(trifluoromethyl)-4H-isoxazol-3-yl]-2-methyl-benzamide]
≥ 80%: percent effect (mortality or growth inhibition) at 200 ppm [1] | mortality at 200 ppm [2] | mortality at 12 ppm [4] | percent control (mortality, anti-feedant effect or growth inhibition) at 200 ppm [5] | percent effect (mortality or growth inhibition) at 200 ppm [3] | mortality at 200 ppm [6]

Cc1cc(C2=NO[C@@](c3cc(Cl)c(F)c(Cl)c3)(C(F)(F)F)C2)ccc1C(=O)NCC1(C(N)=S)CC1 [Compound B01, N-[(1-carbamothioylcyclopropyl)methyl]-4-[(5S)-5-(3,5-dichloro-4-fluoro-phenyl)-5-(trifluoromethyl)-4H-isoxazol-3-yl]-2-methyl-benzamide]
≥ 80%: percent effect (mortality or growth inhibition) at 200 ppm [1] | mortality at 200 ppm [2] | mortality at 12 ppm [4] | percent control (mortality, anti-feedant effect or growth inhibition) at 200 ppm [5] | percent effect (mortality or growth inhibition) at 200 ppm [3] | mortality at 200 ppm [6]

Cc1cc(C2=NO[C@@](c3cc(Cl)c(F)c(Cl)c3)(C(F)(F)F)C2)ccc1C(=O)NCC1(C(N)=O)CC1 [Compound C01, N-[(1-carbamoylcyclopropyl)methyl]-4-[(5S)-5-(3,5-dichloro-4-fluoro-phenyl)-5-(trifluoromethyl)-4H-isoxazol-3-yl]-2-methyl-benzamide]
≥ 80%: percent effect (mortality or growth inhibition) at 200 ppm [1] | mortality at 200 ppm [2] | mortality at 12 ppm [4] | percent control (mortality, anti-feedant effect or growth inhibition) at 200 ppm [5] | percent effect (mortality or growth inhibition) at 200 ppm [3] | mortality at 200 ppm [6]

Cc1cc(C2=NO[C@@](c3cc(Cl)c(F)c(Cl)c3)(C(F)(F)F)C2)ccc1C(=O)NC(C)C1(C#N)CC1 (stereo partly drawn) [Compound E01, N-[1-(1-cyanocyclopropyl)ethyl]-4-[(5S)-5-(3,5-dichloro-4-fluoro-phenyl)-5-(trifluoromethyl)-4H-isoxazol-3-yl]-2-methyl-benzamide]
≥ 80%: percent effect (mortality or growth inhibition) at 200 ppm [1] | mortality at 200 ppm [2] | percent control (mortality, anti-feedant effect or growth inhibition) at 200 ppm [5]

CCOC(=O)N(CC1(C#N)CC1)C(=O)c1ccc(C2=NO[C@@](c3cc(Cl)c(F)c(Cl)c3)(C(F)(F)F)C2)cc1C [Compound F01, ethyl N-[(1-cyanocyclopropyl)methyl]-N-[4-[(5S)-5-(3,5-dichloro-4-fluoro-phenyl)-5-(trifluoromethyl)-4H-isoxazol-3-yl]-2-methyl-benzoyl]carbamate]
≥ 80%: percent effect (mortality or growth inhibition) at 200 ppm [1] | mortality at 200 ppm [2] | percent control (mortality, anti-feedant effect or growth inhibition) at 200 ppm [5] | percent effect (mortality or growth inhibition) at 200 ppm [3] | mortality at 200 ppm [6]
